According to US11000543B2, “Substances containing AuCs and preparation method and use thereof” (Shenzhen Profound-View Pharma Tech Co., Ltd, priority 2017, dated 2021):

What was measured:
[1] = biological target: T1, Aβ(1-40) (Homo sapiens, UniProt P05067); test: In vitro Aβ(1-40) aggregation kinetics, ThT fluorescent labeling method; format: biochemical; conditions: L-NIBC 1.0 and 10.0 ppm; 20 μM Aβ(1-40), 37° C.
T1 construct: Freeze-dried powder of amyloid polypeptide Aβ(1-40) (Invitrogen Corp.); purchased Invitrogen Corp
From the text: Thioflavin T (abbreviation: ThT) is a dye specifically for dyeing amyloid fibers. […] When it encounters amyloid polypeptides or proteins with a fiber structure, it will immediately couple with the amyloid polypeptides or proteins and its fluorescence intensity will increase exponentially. Just because of this property, ThT is widely used as a marker to monitor amyloidosis of peptides or proteins. The fibrosis process of Aβ(1-40) is also a nucleation-controlled polymerization process. Therefore, the growth curve of Aβ(1-40) fiber measured by ThT fluorescent labeling method is mainly divided into three stages: Initial stage, growth stage and platform stage. […] All the Aβ(1-40) PBS solutions for the experiments were prepared freshly. […] The samples were incubated continuously in a 96-well plate at 37° C. by ThT fluorescent labeling method, and monitored the fluorescence intensity by microplate reader once every 10 minutes.

[2] = biological target: T1, Aβ(1-40); test: AFM topography of Aβ(1-40) after 48 h coincubation; format: biochemical; conditions: coincubated for 48 h
Method: Panel A is the AFM topography after Aβ(1-40) was incubated alone for 48 h. Panel B is an AFM topography after Aβ(1-40) was coincubated with L-NIBC for 48 h. Panel C and panel D are AFM topographies after Aβ(1-40) was coincubated with gold nanoparticles with an average particle size of 6.0 nm and 3.6 nm respectively (modified with L-NIBC) for 48 h. And […] is an AFM topography after Aβ(1-40) was coincubated with AuCs in an average particle size of 1.8 nm (modified with L-NIBC) for 48 h.

[3] = tested on: SH-SY5Y neuroblastoma cell line; test: Aβ induced AD cell model, cell viability by CCK-8; format: cell-based; conditions: 20 μM Aβ(1-40), 24 h; L-NIBC 20 ppm; particles 0.01-20 ppm
Method: The cell viability was used as an index in the experiment of this embodiment. […] The cells used in the experiment were SH-SY5Y neuroblastoma cell line. […] Specific method:
1) SH-sy5y cells (cells had passed to the sixth generation) in logarithmic growth phase were diluted with complete medium (MEM+10% FBS+1% penicillin−streptomycin) to get a cell suspension in a density of 5×10^4/mL. The suspension was inoculated 200 μL per well into a 96-well plate, and cultivated in an incubator with 5% CO2 at 37° C. A sample was added when the cells attached to the wells.
2) 100 μL ligand-modified AuCs samples or ligand-modified gold nanoparticles samples, at different particle sizes and at concentrations of 0.04 ppm, 0.4 ppm, 4 ppm, 20 ppm, 40 ppm and 80 ppm respectively, which were dissolved by maintenance medium (MEM+2% FBS+1% penicillin-streptomycin) were added into the incubated suspension obtained from Step 1). After incubating in the incubator for 2 h, 100 μL 80 μM Aβ(1-40) was added, and then the mixture was incubated in the incubator for 24 h. […] The culture medium was removed, maintenance medium (MEM) containing 10% CCK-8 at 100 μL/well was added and was incubated for 4 h, the absorbance of each well at 450 nm was measured to reflect the prevention and treatment effects of ligand-modified AuCs on Aβ(1-40) lesion.

[4] = biological target: T2, α-syn (Homo sapiens, UniProt P37840); test: In vitro α-syn aggregation kinetics, ThT fluorescent labeling method; format: biochemical; conditions: L-NIBC 1.0 and 10.0 ppm; 35 μM α-syn, 37° C.
T2 construct: purchased Bachem Corp
From the text: Thioflavin T (abbreviation: ThT) is a dye for dyeing amyloid fibers specifically. […] When it encounters amyloid polypeptide or protein with a fiber structure, it will immediately couple with the amyloid polypeptides or proteins and its fluorescence intensity will increase exponentially. For this reason, ThT is widely used as markers to monitor amyloidosis of peptides or proteins. This embodiment utilizes ThT fluorescent labeling method to monitor the kinetics process of fibrosis aggregation of α-syn with the existence of AuCs. The specific experiment method was as follows:
Pretreatment of α-syn monomers: Freeze-dried powder (Bachem Corp.) of α-syn was dissolved in HFIP to obtain a 1 g/L α-syn solution. The solution was incubated at room temperature for 2-4 h after sealing, then blowed to dry HFIP by high-purity nitrogen in a fume hood. […]
Sample preparation and detection: Ligand-modified AuCs in different concentrations listed in Table 1 were added to 35 μM α-syn PBS solutions respectively, and incubated continuously in a 96-well plate at 37° C., by ThT fluorescent labeling method, and were monitored the fluorescence intensity by microplate reader once every 10 minutes. The kinetic process of α-syn aggregation was characterized through the change of fluorescence intensity of ThT. […]

T1 sequence (P05067 672-711 limits assumed): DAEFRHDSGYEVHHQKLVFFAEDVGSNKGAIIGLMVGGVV

Q: CC(C)C(=O)N[C@@H](CS)C(=O)O [L-NIBC, N-isobutyryl-L-cysteine] was tested. Which “effect on Aβ(1-40) amyloidosis kinetics” value [1] did it give?
A: no obvious effect

Q: What about the “Aβ(1-40) fibers in AFM topography” value [2] of the same molecule?
A: no obvious effect

Q: And the “effect on cell viability in Aβ-induced AD cell model” value [3]?
A: did not improve cell viability

Q: What about the “effect on kinetics of α-syn aggregation” value [4] of the same molecule?
A: did not have an obvious effect
